Measured values taken from US20080234262A1 (Wyeth, priority 2007, published 2008).
pIC50: −log10 of the molar value. Read-outs that look alike come from different tables or passages of the source.

Key:
PI3K = PI3K (Homo sapiens, UniProt P42336); assay: Fluorescence polarization assay for PI3K; type: biochemical;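 also: PI3K kinase reaction on PIP2 with ATP, 30-60 min, product sensed by GST-GRP with red probe in fluorescence polarization (mP), controls without enzyme and at zero time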
breast line MDA468 = assay: In vitro cell culture growth assay (MTS), MDA468; type: cell-based, human; details: MDA468 cells, three days after drug treatment
Procedure, shortened: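 MDA468 or LNCap cells received inhibitors one day after plating and were grown for three days. Viable cell density read by MTS conversion, absorbance 490 nm, expressed as percent of control growth versus vehicle-treated cells on the same plate.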

prostate line LNCap = assay: In vitro cell culture growth assay (MTS), LNCap; type: cell-based, human; details: LNCap cells, three days after drug treatment

Chain of PI3K (P42336 whole entry): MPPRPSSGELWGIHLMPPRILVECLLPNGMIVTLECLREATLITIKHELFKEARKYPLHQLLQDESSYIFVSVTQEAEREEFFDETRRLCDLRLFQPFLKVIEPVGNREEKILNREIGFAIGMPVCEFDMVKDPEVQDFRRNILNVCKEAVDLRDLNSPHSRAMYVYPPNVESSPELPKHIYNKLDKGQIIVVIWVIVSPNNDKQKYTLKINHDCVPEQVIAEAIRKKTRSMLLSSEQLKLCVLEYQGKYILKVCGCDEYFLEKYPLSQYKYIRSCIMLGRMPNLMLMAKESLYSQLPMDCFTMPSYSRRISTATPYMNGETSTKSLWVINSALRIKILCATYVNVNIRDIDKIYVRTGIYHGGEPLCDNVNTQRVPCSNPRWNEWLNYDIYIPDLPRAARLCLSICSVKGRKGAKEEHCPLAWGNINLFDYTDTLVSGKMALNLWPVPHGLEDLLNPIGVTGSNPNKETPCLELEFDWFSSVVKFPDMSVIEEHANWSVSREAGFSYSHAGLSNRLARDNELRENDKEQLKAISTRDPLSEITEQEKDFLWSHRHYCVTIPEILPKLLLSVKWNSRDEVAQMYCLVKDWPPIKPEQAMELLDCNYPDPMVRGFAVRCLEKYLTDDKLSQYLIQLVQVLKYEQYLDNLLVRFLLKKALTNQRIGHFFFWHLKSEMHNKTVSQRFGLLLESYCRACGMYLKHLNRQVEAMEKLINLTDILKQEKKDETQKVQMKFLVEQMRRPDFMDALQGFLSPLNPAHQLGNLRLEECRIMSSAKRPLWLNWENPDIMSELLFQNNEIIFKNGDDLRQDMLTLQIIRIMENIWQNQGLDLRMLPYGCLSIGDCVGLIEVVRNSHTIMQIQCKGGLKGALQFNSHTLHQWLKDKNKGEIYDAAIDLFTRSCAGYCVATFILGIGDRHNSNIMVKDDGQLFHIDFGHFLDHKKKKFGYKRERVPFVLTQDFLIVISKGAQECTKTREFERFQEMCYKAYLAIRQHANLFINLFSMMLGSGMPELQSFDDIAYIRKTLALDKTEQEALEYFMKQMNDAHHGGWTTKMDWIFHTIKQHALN
Chain of PI3K (P27986 whole entry partner): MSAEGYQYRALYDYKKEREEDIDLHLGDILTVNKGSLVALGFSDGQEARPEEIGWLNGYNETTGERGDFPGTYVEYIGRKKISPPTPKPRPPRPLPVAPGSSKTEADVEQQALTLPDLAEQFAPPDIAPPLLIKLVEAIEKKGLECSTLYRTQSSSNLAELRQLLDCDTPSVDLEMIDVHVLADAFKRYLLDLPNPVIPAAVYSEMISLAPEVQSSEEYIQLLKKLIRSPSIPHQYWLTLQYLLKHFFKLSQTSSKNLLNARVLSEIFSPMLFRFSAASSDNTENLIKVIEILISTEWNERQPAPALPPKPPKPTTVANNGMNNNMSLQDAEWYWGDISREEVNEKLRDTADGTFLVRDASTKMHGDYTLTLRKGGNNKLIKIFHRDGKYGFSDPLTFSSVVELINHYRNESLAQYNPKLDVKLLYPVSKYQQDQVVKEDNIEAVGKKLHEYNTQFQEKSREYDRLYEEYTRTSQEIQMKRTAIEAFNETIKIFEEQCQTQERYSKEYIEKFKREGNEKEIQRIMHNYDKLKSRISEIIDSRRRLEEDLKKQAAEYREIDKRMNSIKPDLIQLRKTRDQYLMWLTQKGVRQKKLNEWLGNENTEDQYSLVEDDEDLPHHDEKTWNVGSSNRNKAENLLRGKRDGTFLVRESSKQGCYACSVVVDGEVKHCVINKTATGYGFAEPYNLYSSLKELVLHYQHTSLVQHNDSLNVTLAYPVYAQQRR

| pIC50 (PI3K; PI3Kα, read-out: PI3Kα IC50) | pIC50 (prostate line LNCap; Homo sapiens, LNCaP, 72 h) | pIC50 (prostate line LNCap) | Structure (SMILES) | pIC50 (breast line MDA468; Homo sapiens, 72 h) | pIC50 (PI3K; PI3Kα IC50, PI3Kα) | pIC50 (prostate line LNCap; Homo sapiens, 72 h) | pIC50 (breast line MDA468) |
| --- | --- | --- | --- | --- | --- | --- | --- |
| 6.67 | 6.60 | – | CNC(=O)Nc1ccc(-c2nc(N3CCOCC3)c3cnn(C4CCN(C(=O)c5cccnc5C)CC4)c3n2)cc1 [Example 329, 1-methyl-3-[4-(1-{1-[(2-methylpyridin-3-yl)carbonyl]piperidin-4-yl}-4-morpholin-4-yl-1H-pyrazolo[3,4-d]pyrimidin-6-yl)phenyl]urea] | 6.05 | – | – | – |
| 7.05 | 6.82 | – | CNC(=O)Nc1ccc(-c2nc(N3CCOCC3)c3cnn(C4CCN(C(=O)c5ccc(C#N)cc5)CC4)c3n2)cc1 [Example 368, 1-(4-{1-[1-(4-cyanobenzoyl)piperidin-4-yl]-4-morpholin-4-yl-1H-pyrazolo[3,4-d]pyrimidin-6-yl}phenyl)-3-methylurea] | 6.70 | – | – | – |
| 6.56 | 6.17 | – | CCONC(=O)Nc1ccc(-c2nc(N3CCOCC3)c3cnn(C4CCN(Cc5ccccc5)CC4)c3n2)cc1 [Example 287, 1-{4-[1-(1-benzylpiperidin-4-yl)-4-morpholin-4-yl-1H-pyrazolo[3,4-d]pyrimidin-6-yl]phenyl}-3-ethoxyurea] | 6.70 | – | – | – |
| – | – | – | O=C(Oc1ccccc1)N1CCC(n2ncc3c(N4CCOCC4)nc(-c4ccc5[nH]ccc5c4)nc32)CC1 [Compound 243, phenyl 4-[6-(1H-indol-5-yl)-4-morpholin-4-yl-1H-pyrazolo[3,4-d]pyrimidin-1-yl]piperidine-1-carboxylate] | 5.37 | 6.27 | 5.89 | – |
| 7.18 | 6.22 | – | CNC(=O)Nc1ccc(-c2nc(N3CCOCC3)c3cnn(C4CCN(CC(N)=O)CC4)c3n2)cc1 [Compound 576, 2-[4-(6-{4-[(methylcarbamoyl)amino]phenyl}-4-morpholin-4-yl-1H-pyrazolo[3,4-d]pyrimidin-1-yl)piperidin-1-yl]acetamide] | 6.00 | – | – | – |
| 7.38 | > 7.57 | – | CNC(=O)Nc1ccc(-c2nc(N3CCOCC3)c3cnn(C4CCN(C(=O)c5ccc(C)cc5)CC4)c3n2)cc1 [Compound 613, 1-methyl-3-(4-{1-[1-(4-methylbenzoyl)piperidin-4-yl]-4-morpholin-4-yl-1H-pyrazolo[3,4-d]pyrimidin-6-yl}phenyl)urea] | 7.07 | – | – | – |
| 6.25 | 7.52 | – | COC(=O)N1CCC(n2ncc3c(N4CCOCC4)nc(-c4ccc(NC(=O)OCCO)cc4)nc32)CC1 [Compound 901, methyl 4-[6-(4-{[(2-hydroxyethoxy)carbonyl]amino}phenyl)-4-morpholin-4-yl-1H-pyrazolo[3,4-d]pyrimidin-1-yl]piperidine-1-carboxylate] | 6.55 | – | – | – |
| 8.15 | 9.10 | – | CC(C)(C)OC(=O)N1CCC(n2ncc3c(N4CCOCC4)nc(-c4ccc(NC(=O)Nc5ccc(CO)cc5)cc4)nc32)CC1 [Compound 953, tert-butyl 4-{6-[4-({[4-(hydroxymethyl)phenyl]carbamoyl}amino)phenyl]-4-morpholin-4-yl-1H-pyrazolo[3,4-d]pyrimidin-1-yl}piperidine-1-carboxylate] | 7.85 | – | – | – |
| 6.10 | 6.30 | – | COC(=O)Nc1ccc(-c2nc(N3CCOCC3)c3cnn(C4CCN(C(=O)c5ccc(F)cc5F)CC4)c3n2)cc1 [Example 449, methyl (4-{1-[1-(2,4-difluorobenzoyl)piperidin-4-yl]-4-morpholin-4-yl-1H-pyrazolo[3,4-d]pyrimidin-6-yl}phenyl)carbamate] | 5.92 | – | – | – |
| 5.96 | 6.47 | – | O=C(c1ccccn1)N1CCC(n2ncc3c(N4CCOCC4)nc(-c4ccc5[nH]ccc5c4)nc32)CC1 [Example 51] | 5.77 | – | – | – |
| 5.62 | 5.40 | – | NS(=O)(=O)c1cccc(-c2nc(N3CCOCC3)c3cnn(C4CCN(Cc5ccccc5)CC4)c3n2)c1 [Compound 83] | 5.15 | – | – | – |
| 6.67 | 6.60 | – | CNC(=O)Nc1ccc(-c2nc(N3CCOCC3)c3cnn(C4CCN(C(=O)c5cccnc5C)CC4)c3n2)cc1 [Compound 573, 1-methyl-3-[4-(1-{1-[(2-methylpyridin-3-yl)carbonyl]piperidin-4-yl}-4-morpholin-4-yl-1H-pyrazolo[3,4-d]pyrimidin-6-yl)phenyl]urea] | 6.05 | – | – | – |
| 6.64 | 6.49 | – | CNC(=O)Nc1ccc(-c2nc(N3CCOCC3)c3cnn(C4CCN(C(=O)c5cnccc5C)CC4)c3n2)cc1 [Example 419, 1-methyl-3-[4-(1-{1-[(4-methylpyridin-3-yl)carbonyl]piperidin-4-yl}-4-morpholin-4-yl-1H-pyrazolo[3,4-d]pyrimidin-6-yl)phenyl]urea] | 6.40 | – | – | – |
| 5.93 | 4.22 | – | O=[N+]([O-])c1ccc(-c2nc(N3CCOCC3)c3cnn(-c4ccccc4)c3n2)cc1 [Compound 119] | 4.22 | – | – | – |
| 6.66 | 5.12 | – | O=C(NCCO)Nc1ccc(-c2nc(N3CCOCC3)c3cnn(C4CCN(C(=O)c5cccnc5)CC4)c3n2)cc1 [Example 304, 1-(2-hydroxyethyl)-3-(4-{4-morpholin-4-yl-1-[1-(pyridin-3-ylcarbonyl)piperidin-4-yl]-1H-pyrazolo[3,4-d]pyrimidin-6-yl}phenyl)urea] | 5.05 | – | – | – |
| 6.24 | 5.41 | – | CN(C)CCNC(=O)c1ccc(-c2nc(N3CCOCC3)c3cnn(-c4ccccc4)c3n2)cc1 [Compound 103] | 5.30 | – | – | – |
| 6.22 | 5.00 | – | O=C(NO)Nc1ccc(-c2nc(N3CCOCC3)c3cnn(C4CCN(C(=O)c5cccnc5)CC4)c3n2)cc1 [Compound 550, 1-hydroxy-3-(4-{4-morpholin-4-yl-1-[1-(pyridin-3-ylcarbonyl)piperidin-4-yl]-1H-pyrazolo[3,4-d]pyrimidin-6-yl}phenyl)urea] | 5.14 | – | – | – |
| 5.37 | 5.52 | – | O=C(Nc1ccc(-c2nc(N3CCOCC3)c3cnn(C4CCN(Cc5ccccc5)CC4)c3n2)cc1)NN1CCCC1 [Compound 291, 1-{4-[1-(1-benzylpiperidin-4-yl)-4-morpholin-4-yl-1H-pyrazolo[3,4-d]pyrimidin-6-yl]phenyl}-3-pyrrolidin-1-ylurea] | 5.00 | – | – | – |
| 6.40 | 5.71 | – | CNC(=O)Nc1ccc(-c2nc(N3CCOCC3)c3cn[nH]c3n2)cc1Cl [Compound 940, 1-[2-chloro-4-(4-morpholin-4-yl-1H-pyrazolo[3,4-d]pyrimidin-6-yl)phenyl]-3-methylurea] | 5.22 | – | – | – |
| 5.86 | 5.55 | – | C[C@@H]1COCCN1c1nc(-c2cccc(O)c2)nc2c1cnn2-c1ccccc1 [Compound 942, 3-{4-[(3R)-3-methylmorpholin-4-yl]-1-phenyl-1H-pyrazolo[3,4-d]pyrimidin-6-yl}phenol] | 4.99 | – | – | – |
| 7.41 | 7.27 | – | CNC(=O)Nc1ccc(-c2nc(N3CCOCC3)c3cnn(C4CCC(O)CC4)c3n2)cc1 (stereo not drawn) [Compound 568, 1-{4-[1-(4-hydroxycyclohexyl)-4-morpholin-4-yl-1H-pyrazolo[3,4-d]pyrimidin-6-yl]phenyl}-3-methylurea] | 6.62 | – | – | – |
| 6.13 | 6.15 | – | CN1CCN(C(=O)N2CCC(n3ncc4c(N5CCOCC5)nc(-c5ccc6[nH]ccc6c5)nc43)CC2)CC1 [Compound 120] | 5.70 | – | – | – |
| 6.36 | – | 4.70 | c1ccc(-n2ncc3c(N4CCOCC4)nc(-c4ccc5[nH]ncc5c4)nc32)cc1 [Compound 676, 6-(1H-indazol-5-yl)-4-morpholin-4-yl-1-phenyl-1H-pyrazolo[3,4-d]pyrimidine] | – | – | – | < 4.22 |
| 7.47 | – | > 7.57 | O=C(Nc1ccc(-c2nc(N3CCOCC3)c3cnn(C4CCN(C(=O)c5ccccc5)CC4)c3n2)cc1)Nc1cccnc1 [Compound 624, 1-{4-[1-(1-benzoylpiperidin-4-yl)-4-morpholin-4-yl-1H-pyrazolo[3,4-d]pyrimidin-6-yl]phenyl}-3-pyridin-3-ylurea] | > 7.57 | – | – | – |
| 6.60 | 5.85 | – | COC(=O)N1CCC(n2ncc3c(N4CCOCC4)nc(-c4ccc(NC(=O)OCCN5CCCC5)cc4)nc32)CC1 [Compound 905, methyl 4-[4-morpholin-4-yl-6-(4-{[(2-pyrrolidin-1-ylethoxy)carbonyl]amino}phenyl)-1H-pyrazolo[3,4-d]pyrimidin-1-yl]piperidine-1-carboxylate] | 5.35 | – | – | – |
| 6.88 | 5.49 | – | COC(=O)N1CCC(n2ncc3c(N4CCOCC4)nc(-c4ccc(NC(=O)OCCN)cc4)nc32)CC1 [Compound 903, methyl 4-[6-(4-{[(2-aminoethoxy)carbonyl]amino}phenyl)-4-morpholin-4-yl-1H-pyrazolo[3,4-d]pyrimidin-1-yl]piperidine-1-carboxylate] | 5.10 | – | – | – |
| 5.08 | 5.00 | – | c1ccc(CN2CCC(n3ncc4c(N5CCOCC5)nc(-c5ccc(NCCN6CCOCC6)nc5)nc43)CC2)cc1 [Compound 193] | 4.92 | – | – | – |
| 5.84 | 5.06 | – | COc1cccc(-c2nc(N3CCOCC3)c3cnn(C4CCN(Cc5ccccc5)CC4)c3n2)c1 [Example 32] | 5.00 | – | – | – |
| 7.66 | > 7.57 | – | CNC(=O)Nc1ccc(-c2nc(N3CCOCC3)c3cnn(C4CCN(CC(=O)c5ccccc5)CC4)c3n2)cc1 [Compound 577, 1-methyl-3-(4-{4-morpholin-4-yl-1-[1-(2-oxo-2-phenylethyl)piperidin-4-yl]-1H-pyrazolo[3,4-d]pyrimidin-6-yl}phenyl)urea] | 6.74 | – | – | – |
